# Data reported in patent publication US20260226493A1, “HERBICIDE RESISTANT PLANTS” (SYNGENTA CROP PROTECTION AG, priority 2023, published 2026).
# Key:
# Type in all cases: biochemical
# [1] = test system: Nannochloropsis gaditana BioDA; assay: BioDA enzyme activity with DMSO or herbicide in vitro
# From the text: (§1) A pet-24 plasmid containing a DNA sequence encoding each identified variant mutant of BIO3-BIO1 derived from Arabidopsis thaliana from example 5 above, as shown in Table 13 below and as shown in full in SEQ ID NOs: 15 to 155, codon-optimised for expression in E. coli, with an N-terminal 6×His-tag and thrombin cleavage site and under control of a T7 promoter, and was synthesised by Twist Bioscience, in a similar manner to SEQ ID NO:311. These plasmids were then expressed in E. coli BL21 (DE3) bioA with 50 μg/mL kanamycin and 25 μg/mL chloramphenicol selection. Overnight cultures grown at 37° C. were used to inoculate 8×500 mL AIM in shake flasks at a ratio of 1:100. Cultures were grown at 37° C., 200 rpm for 3.5 hours and then overnight at 20° C. Cells were harvested by centrifugation for 30 minutes at 10 000 g. Cells were stored at −80° C. until extraction. 30 g of cell pellet from was thawed in 120 mL of IMAC buffer A (20 mM HEPES pH7.5, 25 mM imidazole, 500 mM sodium chloride, 0.15 mM pyridoxal phosphate, 0.5 mM TCEP, 1× complete Protease Inhibitor Tablet (Roche)). The resuspension was passed through a cell disrupter at 18 000 PSI and centrifuged at 50 000 g for 25 minutes at 4° C. The His-tagged BIO3-BIO1 protein was purified from the extract supernatant on an AKTA avant chromatography system (Cytiva) using a HisTrap FF column and eluted in IMAC buffer B ((20 mM HEPES pH7.5, 500 mM imidazole, 500 mM sodium chloride, 0.15 mM pyridoxal phosphate, 0.5 mM TCEP) followed by SEC using a HiLoad 26/60 Superdex200 column in SEC buffer (25 mM HEPES pH7.5, 150 mM sodium chloride, 0.15 mM pyridoxal phosphate, 0.5 mM TCEP). Protein concentration was measured and calculated using the absorbance at 280 nm. Extracts were diluted 1 in 4 and 10 uL was analysed by SDS PAGE.
# (§2) To measure BIO3-BIO1 mutant enzyme activity in the presence of herbicide, herbicides were incubated with 20 μL of enzyme mix (100 mM EPPS pH 8.6, 0.1 mM pyridoxal phosphate, 0.1 mg/mL BSA, 50 nM BIO3-BIO1 enzyme) for 10 minutes at 20° C. in a well of a 96-well half-area black plate, followed by the addition of 20 μL of substrate mix (final concentration of 100 mM EPPS pH 8.6, 0.1 mM pyridoxal phosphate, 0.1 mg/mL BSA, 100 μM spermidine, 20 μM KAPA, 100 mM NaCO3) and further incubation for 75 minutes at 20° C. The reaction was terminated by the addition of 50 μL of derivatisation mix (final concentration of 250 mM borate NaOH pH 9.4, 3.6 mM o-phthalaldehyde, 7 mM β-mercaptoethanol, 17% (v/v) ethanol, 3.6% (v/v) methanol). The fluorescent product produced by the reaction of DAPA with o-phthalaldehyde and 7 mM β-mercaptoethanol was measured at 470 nm after excitation at 410 nm. The percentage inhibition was calculated as the activity in the presence of one of three concentrations of each herbicide compound A to M (note that the compounds labelled as A to M are identified hereinabove in the relevant section of the description) as a percentage of the activity in DMSO (Table 12 and 13). The percentage activity versus WT was also calculated and is shown in Table 13 and 14 (NT indicates mutation not tested in table 13, note that these mutations are tested at different compound concentrations for compounds L, M and C, and the results are shown in table 14).
# (§3) The activity of various wild-type BioDA and variant enzymes was also tested when treated with DMSO or herbicide in vitro.
# (§4) Protein of Schizosaccharomyces japonicus BioDA (SEQ ID NO:13), Nannochloropsis gaditana BioDA (SEQ ID NO:3), Selaginella moellendorffii BioDA (SEQ ID NO:319), Quercus robur BioDA (SEQ ID NOA11), Ostreococcus tauri BioDA (SEQ ID NO:9), and the variants of Ostreococcus tauri BioDA A374D, F332A and P407A (SEQ ID Nos:321-323) was prepared using the method in Example 6. BioDA enzyme activity in the presence of herbicide or DMSO in vitro for each of the proteins was assayed according to the enzyme assay method above. The results are shown in Table 26 provided below in the “TABLES” section.
# Ostreococcus tauri BioDA = assay: as above; conditions: Ostreococcus tauri BioDAΔMTP
# From the text: as §1, §2, §3, §4
# Quercus robur BioDA = assay: as above; conditions: Quercus robur BioDAΔMTP
# From the text: as §1, §2, §3, §4
# [2] = test system: Schizosaccharomyces japonicus BioDA; assay: as above
# From the text: as §1, §2, §3, §4
# [3] = test system: Selaginella moellendorffii BioDA; assay: as above; conditions: Selaginella moellendorcffii BioDAΔMTP
# From the text: as §1, §2, §3, §4
# Bacillus subtilis BioA = assay: BioA enzyme activity with DMSO or herbicide in vitro; conditions: spermidine in substrate mix
# From the text: as §1, §2
# (§5) Protein of Escherichia coli BioA (SEQ ID NO:159), Pantoea ananatis BioA (SEQ ID NO:167), Streptomyces viridochromogenes BioA (SEQ ID NO:170), Cryptosporidium andersoni BioA (SEQ ID NO:160), Stenotrophomonas maltophilia BioA (SEQ ID NO:171), Chroococcidiopsis BioA (SEQ ID NO:184), Pedobacter hartonius BioA (SEQ ID NO:181), Chitinophaga filiformis BioA (SEQ ID NO:180), Tenacibaculum adriaticum BioA (SEQ ID NO:185) and Bacillus subtilis BioA (SEQ ID NO:166) was prepared using the method in Example 6. BioA enzyme activity in the presence of herbicide or DMSO in vitro for each of the proteins was assayed according to the enzyme assay method in Example 6, except in some reactions spermidine was replaced with 2 mM S-Adenosyl methionine.
# [4] = test system: Chitinophaga filiformis BioA; assay: as above; conditions: spermidine in substrate mix
# From the text: as §1, §2, §5
# Escherichia coli BioA = biological target: T1, Escherichia coli BioA (Escherichia coli, UniProt P12995); assay: as above; conditions: SAM in substrate mix, read-out: % Inhibition relative to DMSO treatment
# T1 construct: 6xHis-tag (N); thrombin cleavage site (N); made in house; host or cells: E. coli BL21 (DE3) bioA
# T1 sequence (P12995 whole entry): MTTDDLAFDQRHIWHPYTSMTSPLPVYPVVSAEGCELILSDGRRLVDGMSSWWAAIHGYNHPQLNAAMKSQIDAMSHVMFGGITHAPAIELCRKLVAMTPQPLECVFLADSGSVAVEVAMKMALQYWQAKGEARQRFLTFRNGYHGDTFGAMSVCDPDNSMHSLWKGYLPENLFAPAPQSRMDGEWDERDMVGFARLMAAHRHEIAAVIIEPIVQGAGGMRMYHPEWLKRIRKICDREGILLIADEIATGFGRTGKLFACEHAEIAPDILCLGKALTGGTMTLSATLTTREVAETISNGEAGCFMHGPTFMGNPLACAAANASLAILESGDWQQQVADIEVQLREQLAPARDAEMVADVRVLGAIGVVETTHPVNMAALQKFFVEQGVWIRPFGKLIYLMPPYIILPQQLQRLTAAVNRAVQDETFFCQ
# From the text: as §1, §2, §5
# Pantoea ananatis BioA = assay: as above; conditions: SAM in substrate mix
# From the text: as §1, §2, §5
# [5] = test system: Streptomyces viridochromogenes BioA; assay: as above; conditions: SAM in substrate mix
# From the text: as §1, §2, §5
SMILES,% Inhibition relative to DMSO treatment ([1]; 0.5 μM) [%],% Inhibition relative to DMSO treatment (Ostreococcus tauri BioDA; 0.5 μM) [%],% Inhibition relative to DMSO treatment (Ostreococcus tauri BioDA; 31 μM) [%],% Inhibition relative to DMSO treatment (Ostreococcus tauri BioDA; 500 μM) [%],% Inhibition relative to DMSO treatment (Quercus robur BioDA; 0.5 μM) [%],% Inhibition relative to DMSO treatment ([2]; 0.5 μM) [%],% Inhibition relative to DMSO treatment ([2]; 31 μM) [%],% Inhibition relative to DMSO treatment ([2]; 500 μM) [%],% Inhibition relative to DMSO treatment ([3]; 0.5 μM) [%],% Inhibition relative to DMSO treatment (Bacillus subtilis BioA; 0.5 μM) [%],% Inhibition relative to DMSO treatment ([4]; 0.5 μM) [%],inhibition at 0.5 µM (Escherichia coli BioA) [%],% Inhibition relative to DMSO treatment (Pantoea ananatis BioA; 0.5 μM) [%],% Inhibition relative to DMSO treatment ([5]; 0.5 μM) [%],other results
"CCn1c(Cn2ccc(C(F)(F)F)n2)cc(=O)c(C(=O)O)c1-c1ccc(Cl)c(Cl)c1 [Compound L, 2-(3,4-dichlorophenyl)-1-ethyl-4-oxo-6-[[3-(trifluoromethyl)pyrazol-1-yl]methyl]pyridine-3-carboxylic acid]",6,5,83,98,83,0,55,94,9,0,11,4,9,0,inhibition at 31 µM (Escherichia coli BioA; 31 μM): 8%; inhibition at 500 µM (Escherichia coli BioA; 500 μM): 35%; % Inhibition relative to DMSO treatment (Pantoea ananatis BioA; 31 μM): 0%; % Inhibition relative to DMSO treatment (Pantoea ananatis BioA; 500 μM): 23%; % Inhibition relative to DMSO treatment ([5]; 31 μM): 16%; % Inhibition relative to DMSO treatment ([5]; 500 μM): 34%
"C[C@@H](N)COc1cccc(C(=O)O)n1.Cl.Cl [Compound E, [(1R)-2-(6-carboxypyridin-1-ium-2-yl)oxy-1-methyl-ethyl]ammonium dichloride]",–,–,–,–,–,–,–,–,–,–,–,–,–,–,% Inhibition relative to DMSO treatment ([1]; 200 μM): 66%; % Inhibition relative to DMSO treatment (Ostreococcus tauri BioDA; 200 μM): 53%; % Inhibition relative to DMSO treatment (Quercus robur BioDA; 200 μM): 96%; % Inhibition relative to DMSO treatment ([2]; 200 μM): 28%; % Inhibition relative to DMSO treatment ([3]; 200 μM): 69%; % Inhibition relative to DMSO treatment (Bacillus subtilis BioA; 200 μM): 0%; % Inhibition relative to DMSO treatment ([4]; 200 μM): 28%; inhibition at 200 µM (Escherichia coli BioA; 200 μM): 12%; % Inhibition relative to DMSO treatment (Pantoea ananatis BioA; 200 μM): 15%; % Inhibition relative to DMSO treatment ([5]; 200 μM): 0%
"CCOC(=O)c1nn(-c2ccc3c(c2)OC(F)(F)C(F)(F)O3)c2cccc(C(C)=O)c2c1=O [Compound A, ethyl 5-acetyl-4-oxo-1-(2,2,3,3-tetrafluoro-1,4-benzodioxin-6-yl)cinnoline-3-carboxylate]",–,–,–,–,–,–,–,–,–,–,–,–,–,–,% Inhibition relative to DMSO treatment ([1]; 25 μM): 5%; % Inhibition relative to DMSO treatment (Ostreococcus tauri BioDA; 25 μM): 0%; % Inhibition relative to DMSO treatment (Quercus robur BioDA; 25 μM): 72%; % Inhibition relative to DMSO treatment ([2]; 25 μM): 2%; % Inhibition relative to DMSO treatment ([3]; 25 μM): 25%; % Inhibition relative to DMSO treatment (Bacillus subtilis BioA; 25 μM): 0%; % Inhibition relative to DMSO treatment ([4]; 25 μM): 0%; inhibition at 25 µM (Escherichia coli BioA; 25 μM): 6%; % Inhibition relative to DMSO treatment (Pantoea ananatis BioA; 25 μM): 7%; % Inhibition relative to DMSO treatment ([5]; 25 μM): 0%
"CCn1c(-c2ccc(Cl)c(Cl)c2)c(C(=O)O)c(=O)c2cc(F)ccc21 [Compound M, 2-(3,4-dichlorophenyl)-1-ethyl-6-fluoro-4-oxo-quinoline-3-carboxylic acid]",3,0,45,92,22,15,95,99,0,4,0,0,11,0,–
"CCn1c(C)c(-c2ccc(F)cc2F)c(=O)c(C(=O)O)c1-c1ccc(Cl)c(Cl)c1 [Compound C, 2-(3,4-dichlorophenyl)-5-(2,4-difluorophenyl)-1-ethyl-6-methyl-4-oxo-pyridine-3-carboxylic acid]",8,0,–,–,32,17,–,–,9,0,12,8,11,0,–
"CCn1c(C)c(-c2cc(OC(F)(F)F)ccc2Cl)c(=O)c(C(=O)O)c1-c1ccc(Cl)c(Cl)c1 [Compound D, 5-[2-chloro-5-(trifluoromethoxy)phenyl]-2-(3,4-dichlorophenyl)-1-ethyl-6-methyl-4-oxo-pyridine-3-carboxylic acid]",14,0,–,–,88,87,–,–,75,0,0,6,6,0,% Inhibition relative to DMSO treatment (Ostreococcus tauri BioDA; 5 μM): 36%
